Data taken from patent US20250092017A1, “2-PIPERIDYL OR 2-PYRAZOLYL SUBSTITUTED PYRIMIDINE COMPOUND SERVING AS EGFR INHIBITOR” (SUZHOU PUHE BIOPHARMA CO., LTD., priority 2022, published 2025).

How the values were obtained:
[1] = Liver microsome stability test, human; type: in vitro ADME; conditions: human liver microsomes 0.5 mg/ml, compound 1 μM, NADPH 1 mM, within 60 minutes
Description: (§1) The compounds of the present disclosure were subjected to a liver microsome stability test. The compounds to be tested were co-incubated with liver microsomes of different species with or without the addition of NADPH. The final concentration of the compounds to be tested in the test system was 1 μM. The final concentration of NADPH was 1 mM, and the final concentration of liver microsomes was 0.5 mg/ml.

[2] = Liver microsome stability test, mouse; type: in vitro ADME; conditions: mouse liver microsomes 0.5 mg/ml, compound 1 μM, NADPH 1 mM, within 60 minutes
Description: as §1

[3] = biological target: EGFR (L858R/C797S) (Homo sapiens, UniProt P00533, C797S/L858R); test: MSA (Mobility Shift Assay) kinase activity, EGFR-L858R-C797S; type: biochemical
Sequence of EGFR (L858R/C797S) (P00533 25-1210 C797S/L858R): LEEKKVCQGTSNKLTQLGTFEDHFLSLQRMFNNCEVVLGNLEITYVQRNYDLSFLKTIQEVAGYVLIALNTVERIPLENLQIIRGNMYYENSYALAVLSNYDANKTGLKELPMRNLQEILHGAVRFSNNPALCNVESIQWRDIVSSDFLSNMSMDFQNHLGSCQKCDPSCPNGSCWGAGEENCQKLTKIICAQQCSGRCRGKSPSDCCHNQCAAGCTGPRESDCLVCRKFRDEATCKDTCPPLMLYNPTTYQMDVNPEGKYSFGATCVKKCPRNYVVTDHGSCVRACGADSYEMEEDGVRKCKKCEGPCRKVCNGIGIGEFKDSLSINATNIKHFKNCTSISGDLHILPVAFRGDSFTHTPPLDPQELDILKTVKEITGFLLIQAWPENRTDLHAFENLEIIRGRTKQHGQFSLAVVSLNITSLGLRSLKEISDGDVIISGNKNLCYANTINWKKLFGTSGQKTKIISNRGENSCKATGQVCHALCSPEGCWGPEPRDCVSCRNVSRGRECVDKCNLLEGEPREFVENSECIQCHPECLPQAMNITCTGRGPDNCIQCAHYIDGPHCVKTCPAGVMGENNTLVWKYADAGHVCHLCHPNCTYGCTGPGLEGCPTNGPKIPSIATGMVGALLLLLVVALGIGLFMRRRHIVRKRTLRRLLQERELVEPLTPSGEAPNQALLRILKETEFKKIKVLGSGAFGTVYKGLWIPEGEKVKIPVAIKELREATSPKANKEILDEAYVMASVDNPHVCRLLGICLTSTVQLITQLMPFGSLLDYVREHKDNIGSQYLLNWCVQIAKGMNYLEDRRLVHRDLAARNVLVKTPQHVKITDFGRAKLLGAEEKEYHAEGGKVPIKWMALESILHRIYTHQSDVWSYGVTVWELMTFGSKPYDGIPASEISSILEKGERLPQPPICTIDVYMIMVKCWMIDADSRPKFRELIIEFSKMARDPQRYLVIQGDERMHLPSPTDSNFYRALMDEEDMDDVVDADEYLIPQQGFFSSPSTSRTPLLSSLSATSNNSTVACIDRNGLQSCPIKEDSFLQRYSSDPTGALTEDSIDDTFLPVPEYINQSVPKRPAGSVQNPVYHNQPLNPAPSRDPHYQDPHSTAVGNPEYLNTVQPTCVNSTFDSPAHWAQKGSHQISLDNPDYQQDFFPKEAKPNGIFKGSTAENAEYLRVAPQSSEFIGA
Method in brief: (§2)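 Kinase preincubated with compound 10 min at room temperature, then reaction started with ATP plus substrate in 1x kinase buffer and run at room temperature. Substrate-to-product conversion read by mobility shift; % inhibition normalised to no-enzyme and no-compound controls, IC50 from variable-slope four-parameter fit.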

[4] = biological target: Ba/F3-FL-EGFR-Del19 (E746-A750) (Homo sapiens, UniProt P00533, DEL746-750, cells depend on it); test: CellTiter-Glo proliferation, Ba/F3-FL-EGFR-Del19; conditions: read-out: Ba/F3-FL-EGFR-Del19 (E746-A750), 72 hours
Sequence of Ba/F3-FL-EGFR-Del19 (E746-A750) (P00533 with tags, fused parts or gaps DEL746-750): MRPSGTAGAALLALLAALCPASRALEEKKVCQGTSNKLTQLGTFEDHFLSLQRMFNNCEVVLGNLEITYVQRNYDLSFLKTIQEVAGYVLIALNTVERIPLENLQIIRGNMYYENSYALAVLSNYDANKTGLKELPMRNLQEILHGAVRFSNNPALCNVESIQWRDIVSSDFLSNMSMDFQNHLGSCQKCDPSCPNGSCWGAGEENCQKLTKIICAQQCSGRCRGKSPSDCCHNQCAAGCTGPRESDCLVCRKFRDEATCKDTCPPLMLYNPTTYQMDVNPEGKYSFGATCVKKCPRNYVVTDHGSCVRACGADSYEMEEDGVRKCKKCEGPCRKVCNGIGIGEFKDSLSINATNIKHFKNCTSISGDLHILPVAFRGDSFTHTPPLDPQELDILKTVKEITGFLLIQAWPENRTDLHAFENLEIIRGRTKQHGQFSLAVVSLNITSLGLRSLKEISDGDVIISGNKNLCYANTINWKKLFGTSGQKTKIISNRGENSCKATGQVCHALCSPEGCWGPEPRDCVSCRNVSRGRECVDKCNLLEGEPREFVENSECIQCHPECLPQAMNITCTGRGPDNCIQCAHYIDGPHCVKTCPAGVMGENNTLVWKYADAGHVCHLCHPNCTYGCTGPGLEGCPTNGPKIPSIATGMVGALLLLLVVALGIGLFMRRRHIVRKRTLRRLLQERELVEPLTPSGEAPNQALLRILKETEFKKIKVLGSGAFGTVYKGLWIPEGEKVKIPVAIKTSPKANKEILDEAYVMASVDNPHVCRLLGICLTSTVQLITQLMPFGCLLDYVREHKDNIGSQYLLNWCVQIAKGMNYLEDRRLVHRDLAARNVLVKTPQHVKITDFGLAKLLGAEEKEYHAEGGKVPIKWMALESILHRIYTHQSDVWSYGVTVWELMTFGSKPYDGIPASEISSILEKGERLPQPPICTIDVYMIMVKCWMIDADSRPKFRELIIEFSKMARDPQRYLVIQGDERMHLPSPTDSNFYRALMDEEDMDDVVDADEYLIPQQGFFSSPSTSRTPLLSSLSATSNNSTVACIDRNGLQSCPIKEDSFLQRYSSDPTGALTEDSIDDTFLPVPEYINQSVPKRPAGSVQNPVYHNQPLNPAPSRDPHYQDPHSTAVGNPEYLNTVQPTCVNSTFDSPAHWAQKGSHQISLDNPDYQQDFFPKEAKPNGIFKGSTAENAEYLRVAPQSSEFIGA

[5] = biological target: EGFR (L858R) (Homo sapiens, UniProt P00533, L858R); test: MSA (Mobility Shift Assay) kinase activity, EGFR-L858R; type: biochemical
Sequence of EGFR (L858R) (P00533 25-1210 L858R): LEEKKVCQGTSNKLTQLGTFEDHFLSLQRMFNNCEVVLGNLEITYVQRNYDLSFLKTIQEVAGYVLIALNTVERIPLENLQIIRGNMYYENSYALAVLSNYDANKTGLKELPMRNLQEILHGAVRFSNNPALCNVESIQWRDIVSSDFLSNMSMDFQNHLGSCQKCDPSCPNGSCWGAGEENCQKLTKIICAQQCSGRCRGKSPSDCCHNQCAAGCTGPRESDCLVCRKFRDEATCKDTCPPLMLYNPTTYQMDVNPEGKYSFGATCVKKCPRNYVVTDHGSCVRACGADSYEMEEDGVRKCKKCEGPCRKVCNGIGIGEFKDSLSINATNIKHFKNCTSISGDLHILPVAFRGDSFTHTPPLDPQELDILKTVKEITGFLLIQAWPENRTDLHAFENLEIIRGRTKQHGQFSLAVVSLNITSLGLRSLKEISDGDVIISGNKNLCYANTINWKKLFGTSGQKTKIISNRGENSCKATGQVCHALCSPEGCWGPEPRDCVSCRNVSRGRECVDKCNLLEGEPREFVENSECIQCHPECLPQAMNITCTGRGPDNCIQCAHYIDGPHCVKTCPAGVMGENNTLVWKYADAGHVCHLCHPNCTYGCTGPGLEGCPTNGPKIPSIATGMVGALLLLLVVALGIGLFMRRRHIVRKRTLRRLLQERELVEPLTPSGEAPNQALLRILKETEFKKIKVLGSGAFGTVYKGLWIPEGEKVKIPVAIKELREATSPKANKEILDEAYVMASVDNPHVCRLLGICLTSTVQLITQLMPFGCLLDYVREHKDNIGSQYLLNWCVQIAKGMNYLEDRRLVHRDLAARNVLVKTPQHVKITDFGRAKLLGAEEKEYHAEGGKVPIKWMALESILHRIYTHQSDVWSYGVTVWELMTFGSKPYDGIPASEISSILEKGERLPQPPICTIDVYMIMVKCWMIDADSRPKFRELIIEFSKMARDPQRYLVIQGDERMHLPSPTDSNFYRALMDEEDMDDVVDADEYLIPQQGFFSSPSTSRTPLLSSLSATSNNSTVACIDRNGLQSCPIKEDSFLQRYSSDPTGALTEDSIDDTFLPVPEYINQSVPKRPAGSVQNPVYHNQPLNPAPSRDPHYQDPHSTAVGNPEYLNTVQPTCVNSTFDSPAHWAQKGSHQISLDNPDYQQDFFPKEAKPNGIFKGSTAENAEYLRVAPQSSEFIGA
Method in brief: as §2

[6] = biological target: T1, Ba/F3-FL-EGFR (Homo sapiens, UniProt P00533); test: CellTiter-Glo proliferation, Ba/F3-FL-EGFR; type: cell-based; conditions: 72 hours, read-out: Ba/F3-FL-EGFR IC50/nM
T1 construct: FL read as full length
T1 sequence (P00533 whole entry, change not shown): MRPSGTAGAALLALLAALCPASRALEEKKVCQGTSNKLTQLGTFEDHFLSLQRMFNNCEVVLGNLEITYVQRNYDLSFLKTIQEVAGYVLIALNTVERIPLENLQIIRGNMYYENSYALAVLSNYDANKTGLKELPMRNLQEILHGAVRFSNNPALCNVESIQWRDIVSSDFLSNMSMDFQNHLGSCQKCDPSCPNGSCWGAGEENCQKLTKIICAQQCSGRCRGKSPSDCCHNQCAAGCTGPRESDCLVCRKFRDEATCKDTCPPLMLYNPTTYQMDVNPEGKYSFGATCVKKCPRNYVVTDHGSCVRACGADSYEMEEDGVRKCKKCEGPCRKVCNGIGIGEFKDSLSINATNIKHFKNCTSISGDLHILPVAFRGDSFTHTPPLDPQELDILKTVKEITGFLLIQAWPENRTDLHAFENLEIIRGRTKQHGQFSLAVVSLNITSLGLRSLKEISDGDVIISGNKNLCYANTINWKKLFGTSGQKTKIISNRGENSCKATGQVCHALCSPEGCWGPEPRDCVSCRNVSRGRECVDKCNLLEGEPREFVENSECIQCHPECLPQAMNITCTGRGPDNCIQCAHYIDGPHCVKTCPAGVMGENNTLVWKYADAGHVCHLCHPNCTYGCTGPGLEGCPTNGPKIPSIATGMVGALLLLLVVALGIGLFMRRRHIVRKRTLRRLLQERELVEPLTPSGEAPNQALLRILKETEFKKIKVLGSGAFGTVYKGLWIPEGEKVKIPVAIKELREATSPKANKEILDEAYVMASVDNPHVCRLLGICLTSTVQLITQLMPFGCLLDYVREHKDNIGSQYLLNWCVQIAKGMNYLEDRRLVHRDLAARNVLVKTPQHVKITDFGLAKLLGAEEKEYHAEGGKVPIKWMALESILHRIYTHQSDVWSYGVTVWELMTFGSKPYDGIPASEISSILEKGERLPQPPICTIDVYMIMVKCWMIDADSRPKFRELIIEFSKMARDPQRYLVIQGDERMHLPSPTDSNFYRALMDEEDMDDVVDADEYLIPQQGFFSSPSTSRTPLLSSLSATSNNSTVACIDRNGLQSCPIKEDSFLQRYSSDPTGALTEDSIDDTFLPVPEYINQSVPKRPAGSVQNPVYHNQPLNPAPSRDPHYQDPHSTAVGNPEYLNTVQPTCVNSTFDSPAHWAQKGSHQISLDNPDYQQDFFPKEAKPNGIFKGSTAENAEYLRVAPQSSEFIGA
Method in brief: (§3)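 Ba/F3 lines dependent on the indicated EGFR variants were treated with compounds at a final DMSO concentration of 0.1% at 37 °C, 5% CO2. Viability was read by CellTiter-Glo luminescence, and inhibition rate was normalised to DMSO-treated cells (max) and medium-only wells (min). IC50 came from inhibition curves.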

[7] = biological target: Ba/F3-FL-EGFR-del19-T790M-C797S (Homo sapiens, UniProt P00533, DEL746-750/T790M/C797S, cells depend on it); test: CellTiter-Glo proliferation, Ba/F3-FL-EGFR-del19-T790M-C797S; type: cell-based; conditions: 72 hours, read-out: Ba/F3-FL-EGFR-del19-T790M-C797S IC50/nM
Description: Promega CellTiter-Glo reagent was used to detect the effects of small molecule inhibitors on the proliferation of three Ba/F3 cell lines (Ba/F3-FL-EGFR-de119, Ba/F3-FL-EGFR-de119-T790M, Ba/F3-FL-EGFR-de119-T790M-C797S).
The cell lines were cultured in an incubator at 37° C. and 5% CO2. Cells were passaged regularly and cells in the logarithmic phase were used for plating. 95 μL of cell suspension was added to each well of the cell plate, and culture medium without cells (containing 0.1% DMSO) was added to the Min control wells. Substance addition for compound detection cell plate: 5 μL of 20× compound working solution was added to the cell culture plate. 5 μL of DMSO-cell culture medium mixture was added to the Max control, with the final DMSO concentration of 0.1%. 5 μL of DMSO-cell culture medium mixture was added to the Max control. The final DMSO concentration was 0.1%.
Cell viability was detected by CellTiter-Glo luminescence assay. Data analysis:
The cell proliferation inhibition rate (Inhibition Rate) data was processed using the following formula: […]
wherein: RLUDrug represents the relative luminescence unit of the cells with the addition of drug, RLUMin represents the luminescence unit of the culture medium, and RLUMax represents the relative luminescence unit of the cells with the addition of DMSO.
The inhibition rates corresponding to different concentrations of compounds were calculated in EXCEL, and then the inhibition rate curve was plotted using GraphPad Prism software and related parameters including the maximum and minimum inhibition rates of cells and IC50 values were calculated.

[8] = biological target: T2, Ba/F3-TEL-EGFR-L858R-C797S (Homo sapiens, UniProt P00533, C797S/L858R, cells depend on it); test: CellTiter-Glo proliferation, Ba/F3-TEL-EGFR-L858R-C797S; type: cell-based; conditions: 72 hours, read-out: Ba/F3-TEL-EGFR-L858R-C797S IC50/nM
T2 construct: fused on or other part: N-terminal TEL (ETV6) oligomerising part fused to the EGFR intracellular/kinase part; P41212 (Transcription factor ETV6)
Method in brief: as §3

Row | Compound | CLint scaled at 1 μM [1] [mL/min/kg] | CLint scaled at 1 μM [2] [mL/min/kg] | IC50 [3] [nM] | GI50 [4] [nM] | IC50 [5] [nM] | GI50 [6] [nM] | GI50 [7] [nM] | GI50 [8] [nM]
1 | CC(C)c1ccc(N2CC(N(C)S(C)(=O)=O)C2)c2cnc(Nc3ccnc(N4CC[C@@H](O)[C@@H](F)C4)n3)cc12 [Compound P39a] | < 8.6 | 231 | 2 | 41 | 1.1 | 670 | 8.4 | 14
2 | CC(C)c1ccc(N2C[C@H](CS(C)(=O)=O)[C@H]2C)c2cnc(Nc3ccnc(-c4cnn(S(=O)(=O)C5CC5)c4)n3)cc12 [Compound H12] | 14.2 | 196 | 0.6 | 15 | 0.51 | 209 | 7.8 | 5.8
